Laboratory results: ChEMBL document CHEMBL3352338, “Development and biological evaluation of potent and selective c-KIT(D816V) inhibitors” (J Med Chem, 2014)
Activity calls are given as the source filed them. The calls are words filed in the database; no cut-off is given here.

Key:
[1] = target: RAC-alpha serine/threonine-protein kinase (Homo sapiens) (UniProt P31749); assay: Inhibition of AKT1 (unknown origin) at 1 uM by KINOMEscanning assay relative to control; values are per cent of control
[2] = target: Dual specificity mitogen-activated protein kinase kinase 2 (Homo sapiens) (UniProt P36507); assay: Inhibition of MEK2 (unknown origin) at 1 uM by KINOMEscanning assay relative to control; values are per cent of control
Dual specificity mitogen-activated protein kinase kinase 2 (Homo sapiens), sequence (P36507 whole entry): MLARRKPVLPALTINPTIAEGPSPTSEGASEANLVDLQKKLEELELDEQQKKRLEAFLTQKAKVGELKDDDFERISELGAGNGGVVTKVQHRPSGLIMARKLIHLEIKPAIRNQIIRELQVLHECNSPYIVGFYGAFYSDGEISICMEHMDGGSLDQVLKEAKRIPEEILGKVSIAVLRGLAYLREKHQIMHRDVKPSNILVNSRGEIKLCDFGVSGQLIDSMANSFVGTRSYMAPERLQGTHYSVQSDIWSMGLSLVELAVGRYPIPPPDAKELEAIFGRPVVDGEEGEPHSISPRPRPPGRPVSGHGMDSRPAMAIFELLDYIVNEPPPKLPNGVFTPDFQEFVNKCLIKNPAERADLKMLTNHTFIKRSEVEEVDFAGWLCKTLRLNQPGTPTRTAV

[3] = target: Vascular endothelial growth factor receptor 1 (Homo sapiens) (UniProt P17948); assay: Inhibition of FLT1 (unknown origin) at 1 uM by KINOMEscanning assay relative to control; values are per cent of control
Vascular endothelial growth factor receptor 1 (Homo sapiens), sequence (P17948 whole entry): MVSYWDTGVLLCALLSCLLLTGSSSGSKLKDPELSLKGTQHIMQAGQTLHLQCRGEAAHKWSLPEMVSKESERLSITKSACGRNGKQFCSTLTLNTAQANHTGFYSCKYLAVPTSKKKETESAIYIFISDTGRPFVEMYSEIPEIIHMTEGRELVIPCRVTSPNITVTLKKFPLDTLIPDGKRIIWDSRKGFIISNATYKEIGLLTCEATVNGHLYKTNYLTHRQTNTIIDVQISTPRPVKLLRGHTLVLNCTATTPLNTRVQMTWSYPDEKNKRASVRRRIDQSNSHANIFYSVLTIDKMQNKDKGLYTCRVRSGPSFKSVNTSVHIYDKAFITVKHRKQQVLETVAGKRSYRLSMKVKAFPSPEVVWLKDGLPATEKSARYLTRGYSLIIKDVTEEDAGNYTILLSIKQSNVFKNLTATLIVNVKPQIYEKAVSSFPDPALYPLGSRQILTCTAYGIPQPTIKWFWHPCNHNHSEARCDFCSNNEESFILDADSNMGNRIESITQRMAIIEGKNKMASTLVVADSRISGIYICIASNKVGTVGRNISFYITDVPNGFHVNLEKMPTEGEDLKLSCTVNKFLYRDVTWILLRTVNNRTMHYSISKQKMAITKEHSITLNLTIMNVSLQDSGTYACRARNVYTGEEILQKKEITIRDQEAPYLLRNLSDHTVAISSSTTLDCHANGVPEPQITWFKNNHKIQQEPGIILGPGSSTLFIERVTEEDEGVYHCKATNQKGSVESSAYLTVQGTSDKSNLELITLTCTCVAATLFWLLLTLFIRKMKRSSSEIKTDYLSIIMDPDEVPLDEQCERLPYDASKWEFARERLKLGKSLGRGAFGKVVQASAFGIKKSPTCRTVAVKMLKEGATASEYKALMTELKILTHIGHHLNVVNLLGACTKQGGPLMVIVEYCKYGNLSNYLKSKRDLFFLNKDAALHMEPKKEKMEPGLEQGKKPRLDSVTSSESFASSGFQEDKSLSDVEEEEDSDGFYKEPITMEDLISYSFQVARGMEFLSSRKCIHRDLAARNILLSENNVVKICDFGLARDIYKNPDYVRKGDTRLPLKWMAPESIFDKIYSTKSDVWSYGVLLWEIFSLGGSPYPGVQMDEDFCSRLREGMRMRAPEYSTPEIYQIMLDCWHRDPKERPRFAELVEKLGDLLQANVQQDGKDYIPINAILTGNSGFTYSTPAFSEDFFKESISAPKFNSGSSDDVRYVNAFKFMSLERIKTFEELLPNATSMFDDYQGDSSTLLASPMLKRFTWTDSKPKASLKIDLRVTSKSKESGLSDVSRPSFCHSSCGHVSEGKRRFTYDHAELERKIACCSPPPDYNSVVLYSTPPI

[4] = target: Focal adhesion kinase 1 (Homo sapiens) (UniProt Q05397); assay: Inhibition of FAK (unknown origin) at 1 uM by KINOMEscanning assay relative to control; values are per cent of control
[5] = target: Mitogen-activated protein kinase 14 (Homo sapiens) (UniProt Q16539); assay: Inhibition of p38alpha (unknown origin) at 1 uM by KINOMEscanning assay relative to control; values are per cent of control
[6] = target: BDNF/NT-3 growth factors receptor (Homo sapiens) (UniProt Q16620); assay: Inhibition of TRKB (unknown origin) at 1 uM by KINOMEscanning assay relative to control; values are per cent of control
[7] = target: T1, Aurora kinase A (Homo sapiens) (UniProt O14965); assay: Inhibition of AURKA (unknown origin) at 1 uM by KINOMEscanning assay relative to control; values are per cent of control
T1 sequence (whole entry): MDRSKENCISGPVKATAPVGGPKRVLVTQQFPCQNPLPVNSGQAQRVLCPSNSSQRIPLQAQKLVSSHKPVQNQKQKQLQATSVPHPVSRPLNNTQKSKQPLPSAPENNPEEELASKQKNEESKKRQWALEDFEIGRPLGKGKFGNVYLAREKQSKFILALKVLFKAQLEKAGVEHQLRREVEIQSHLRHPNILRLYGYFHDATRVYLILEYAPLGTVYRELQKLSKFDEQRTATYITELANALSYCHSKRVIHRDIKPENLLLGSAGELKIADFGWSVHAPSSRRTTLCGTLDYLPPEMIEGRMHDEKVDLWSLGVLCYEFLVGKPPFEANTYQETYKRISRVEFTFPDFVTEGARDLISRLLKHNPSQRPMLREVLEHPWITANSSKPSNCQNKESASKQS

[8] = target: T2, Mast/stem cell growth factor receptor Kit (Homo sapiens, UniProt P10721); conditions: 5 uM
T2 sequence (P10721 whole entry): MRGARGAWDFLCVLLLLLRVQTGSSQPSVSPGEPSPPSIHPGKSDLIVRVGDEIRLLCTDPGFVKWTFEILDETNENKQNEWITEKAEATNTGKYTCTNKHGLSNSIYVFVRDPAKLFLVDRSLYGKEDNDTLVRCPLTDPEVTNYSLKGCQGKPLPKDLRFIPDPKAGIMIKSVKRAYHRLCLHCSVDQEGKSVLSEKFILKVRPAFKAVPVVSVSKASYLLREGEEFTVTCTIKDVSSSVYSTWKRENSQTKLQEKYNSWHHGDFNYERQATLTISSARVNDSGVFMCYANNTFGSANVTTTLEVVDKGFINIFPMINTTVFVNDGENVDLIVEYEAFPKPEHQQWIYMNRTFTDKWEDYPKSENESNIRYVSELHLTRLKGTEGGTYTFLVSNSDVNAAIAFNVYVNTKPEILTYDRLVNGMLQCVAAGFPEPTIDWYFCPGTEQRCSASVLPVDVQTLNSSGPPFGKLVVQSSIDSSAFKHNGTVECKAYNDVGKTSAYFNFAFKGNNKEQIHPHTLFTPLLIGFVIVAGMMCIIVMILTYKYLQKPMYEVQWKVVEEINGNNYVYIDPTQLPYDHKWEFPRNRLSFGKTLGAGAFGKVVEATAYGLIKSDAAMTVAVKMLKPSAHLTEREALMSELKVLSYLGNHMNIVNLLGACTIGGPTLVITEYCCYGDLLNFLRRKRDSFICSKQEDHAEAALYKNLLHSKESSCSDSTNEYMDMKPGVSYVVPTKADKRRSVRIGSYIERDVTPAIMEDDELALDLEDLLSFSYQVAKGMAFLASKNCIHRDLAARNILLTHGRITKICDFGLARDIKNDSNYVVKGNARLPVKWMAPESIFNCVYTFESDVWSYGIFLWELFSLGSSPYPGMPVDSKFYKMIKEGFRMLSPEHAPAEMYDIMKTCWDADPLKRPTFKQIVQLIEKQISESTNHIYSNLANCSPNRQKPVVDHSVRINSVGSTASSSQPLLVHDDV
Description: Inhibition of c-KIT in imatinib-resistant human HMC-1.2 cells assessed as suppression of STAT3 phosphorylation at 5 uM after 1 hr by Western immunoblotting analysis

[9] = tested on: Tyrosine-protein kinase ABL1 (Homo sapiens), P00519 [T315I]; assay: Inhibition of ABL T315I mutant (unknown origin) at 1 uM by KINOMEscanning assay relative to control; values are per cent of control
[10] = target: Tyrosine-protein kinase JAK1 (Homo sapiens) (UniProt P23458); assay: Inhibition of JAK1 (unknown origin) at 1 uM by KINOMEscanning assay relative to control; values are per cent of control
[11] = target: T2, Mast/stem cell growth factor receptor Kit; assay: Inhibition of c-KIT (unknown origin) at 1 uM by KINOMEscanning assay relative to control; values are per cent of control
[12] = target: ALK tyrosine kinase receptor (Homo sapiens) (UniProt Q9UM73); assay: Inhibition of ALK (unknown origin) at 1 uM by KINOMEscanning assay relative to control; values are per cent of control
[13] = target: RAC-beta serine/threonine-protein kinase (Homo sapiens) (UniProt P31751); assay: Inhibition of AKT2 (unknown origin) at 1 uM by KINOMEscanning assay relative to control; values are per cent of control
RAC-beta serine/threonine-protein kinase (Homo sapiens), sequence (P31751 whole entry): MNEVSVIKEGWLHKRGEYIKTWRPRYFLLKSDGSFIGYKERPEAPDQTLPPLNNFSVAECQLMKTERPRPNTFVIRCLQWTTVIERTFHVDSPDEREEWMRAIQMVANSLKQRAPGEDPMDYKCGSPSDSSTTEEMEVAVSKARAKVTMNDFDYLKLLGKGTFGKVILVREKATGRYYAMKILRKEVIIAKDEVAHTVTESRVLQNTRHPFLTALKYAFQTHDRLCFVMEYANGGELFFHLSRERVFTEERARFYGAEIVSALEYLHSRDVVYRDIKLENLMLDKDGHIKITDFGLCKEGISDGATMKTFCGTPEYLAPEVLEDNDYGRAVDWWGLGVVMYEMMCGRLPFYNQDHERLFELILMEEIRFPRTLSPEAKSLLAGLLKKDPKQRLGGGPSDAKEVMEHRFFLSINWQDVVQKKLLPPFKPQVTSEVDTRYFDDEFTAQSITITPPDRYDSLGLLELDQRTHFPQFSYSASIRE

[14] = target: T3, Inhibitor of nuclear factor kappa-B kinase subunit alpha (Homo sapiens) (UniProt O15111); assay: Inhibition of IKKalpha (unknown origin) at 1 uM by KINOMEscanning assay relative to control; values are per cent of control
T3 sequence (whole entry): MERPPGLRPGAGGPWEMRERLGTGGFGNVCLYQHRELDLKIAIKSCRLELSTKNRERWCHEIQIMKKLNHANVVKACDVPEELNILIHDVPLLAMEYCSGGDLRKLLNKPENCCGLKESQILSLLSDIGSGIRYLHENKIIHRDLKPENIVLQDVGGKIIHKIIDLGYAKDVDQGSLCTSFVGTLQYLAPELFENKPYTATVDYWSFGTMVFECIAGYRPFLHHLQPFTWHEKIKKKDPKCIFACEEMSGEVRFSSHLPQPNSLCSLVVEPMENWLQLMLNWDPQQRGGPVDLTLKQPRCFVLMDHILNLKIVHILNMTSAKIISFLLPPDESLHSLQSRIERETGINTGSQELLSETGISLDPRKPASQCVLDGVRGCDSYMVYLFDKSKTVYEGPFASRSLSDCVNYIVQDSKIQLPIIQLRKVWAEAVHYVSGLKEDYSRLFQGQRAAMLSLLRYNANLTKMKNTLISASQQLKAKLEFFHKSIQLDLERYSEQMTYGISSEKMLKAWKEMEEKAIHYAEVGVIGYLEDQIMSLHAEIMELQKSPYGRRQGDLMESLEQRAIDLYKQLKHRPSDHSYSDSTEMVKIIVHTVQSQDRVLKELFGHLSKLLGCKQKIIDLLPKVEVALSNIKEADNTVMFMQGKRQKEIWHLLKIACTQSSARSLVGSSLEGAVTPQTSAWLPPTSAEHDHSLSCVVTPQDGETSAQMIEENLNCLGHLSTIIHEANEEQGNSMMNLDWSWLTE

[15] = target: Phosphatidylinositol 4,5-bisphosphate 3-kinase catalytic subunit alpha isoform (Homo sapiens, UniProt P42336); assay: Inhibition of PI3Kalpha (unknown origin) at 1 uM by KINOMEscanning assay relative to control; values are per cent of control
Phosphatidylinositol 4,5-bisphosphate 3-kinase catalytic subunit alpha isoform, sequence (P42336 whole entry, canonical isoform): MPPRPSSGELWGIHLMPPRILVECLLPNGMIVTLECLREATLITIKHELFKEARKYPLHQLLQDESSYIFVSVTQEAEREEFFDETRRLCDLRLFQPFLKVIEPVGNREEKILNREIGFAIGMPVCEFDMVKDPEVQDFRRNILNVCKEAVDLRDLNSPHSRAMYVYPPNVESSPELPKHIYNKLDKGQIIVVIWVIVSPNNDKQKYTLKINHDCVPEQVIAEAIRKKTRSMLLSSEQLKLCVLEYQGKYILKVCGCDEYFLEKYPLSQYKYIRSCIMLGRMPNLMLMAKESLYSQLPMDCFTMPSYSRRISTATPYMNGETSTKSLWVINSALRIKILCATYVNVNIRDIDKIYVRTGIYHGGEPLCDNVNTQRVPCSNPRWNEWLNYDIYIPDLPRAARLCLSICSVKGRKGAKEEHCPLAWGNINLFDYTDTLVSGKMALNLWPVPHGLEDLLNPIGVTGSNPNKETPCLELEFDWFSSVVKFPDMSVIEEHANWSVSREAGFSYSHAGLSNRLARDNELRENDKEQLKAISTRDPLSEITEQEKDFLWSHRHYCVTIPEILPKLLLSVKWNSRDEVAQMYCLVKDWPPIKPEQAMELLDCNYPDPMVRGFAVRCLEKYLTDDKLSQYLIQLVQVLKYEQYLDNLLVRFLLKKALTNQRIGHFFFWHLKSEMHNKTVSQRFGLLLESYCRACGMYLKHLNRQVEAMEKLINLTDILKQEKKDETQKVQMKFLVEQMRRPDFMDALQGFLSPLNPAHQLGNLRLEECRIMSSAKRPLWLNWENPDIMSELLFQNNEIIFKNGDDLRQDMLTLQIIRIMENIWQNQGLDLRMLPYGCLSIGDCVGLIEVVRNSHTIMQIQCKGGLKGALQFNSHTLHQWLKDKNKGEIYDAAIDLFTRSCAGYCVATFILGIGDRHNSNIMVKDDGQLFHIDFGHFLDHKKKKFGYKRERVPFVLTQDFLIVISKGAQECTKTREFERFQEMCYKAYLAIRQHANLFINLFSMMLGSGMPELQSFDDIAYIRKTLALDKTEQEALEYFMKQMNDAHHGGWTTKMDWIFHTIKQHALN

[16] = tested on: Serine/threonine-protein kinase B-raf (Homo sapiens), P15056 [V600E]; assay: Inhibition of BRAF V600E mutant (unknown origin) at 1 uM by KINOMEscanning assay relative to control; values are per cent of control
Serine/threonine-protein kinase B-raf (Homo sapiens), P15056 [V600E], sequence (P15056 whole entry V600E): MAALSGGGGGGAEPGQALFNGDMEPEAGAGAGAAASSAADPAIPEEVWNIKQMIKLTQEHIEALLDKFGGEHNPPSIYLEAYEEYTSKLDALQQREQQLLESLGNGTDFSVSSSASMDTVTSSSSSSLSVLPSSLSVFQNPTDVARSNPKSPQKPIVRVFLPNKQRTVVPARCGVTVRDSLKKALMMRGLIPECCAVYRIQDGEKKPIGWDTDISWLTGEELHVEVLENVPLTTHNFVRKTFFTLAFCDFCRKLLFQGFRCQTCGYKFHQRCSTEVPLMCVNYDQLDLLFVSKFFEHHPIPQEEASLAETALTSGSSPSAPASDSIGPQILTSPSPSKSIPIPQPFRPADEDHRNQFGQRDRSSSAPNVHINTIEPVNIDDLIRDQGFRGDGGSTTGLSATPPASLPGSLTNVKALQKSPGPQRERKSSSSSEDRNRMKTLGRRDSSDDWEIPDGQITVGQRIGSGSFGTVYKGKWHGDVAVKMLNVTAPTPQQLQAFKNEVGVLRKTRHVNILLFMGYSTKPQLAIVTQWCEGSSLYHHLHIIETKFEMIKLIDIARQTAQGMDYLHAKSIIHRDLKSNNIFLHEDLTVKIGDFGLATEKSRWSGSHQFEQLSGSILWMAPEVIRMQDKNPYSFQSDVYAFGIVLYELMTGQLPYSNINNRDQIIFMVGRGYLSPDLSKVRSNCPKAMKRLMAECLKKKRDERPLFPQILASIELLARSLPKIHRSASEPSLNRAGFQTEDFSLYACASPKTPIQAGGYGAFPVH

[17] = target: Aurora kinase B (Homo sapiens) (UniProt Q96GD4); assay: Inhibition of AURKB (unknown origin) at 1 uM by KINOMEscanning assay relative to control; values are per cent of control

Compound	residual activity [1] [%]	residual activity [2] [%]	residual activity [3] [%]	residual activity [4] [%]	residual activity [5] [%]	residual activity [6] [%]	residual activity [7] [%]	inhibition [8]	residual activity [9] [%]	residual activity [10] [%]	residual activity [11] [%]	residual activity [12] [%]	residual activity [13] [%]	residual activity [14] [%]	residual activity [15] [%]	residual activity [16] [%]	residual activity [17] [%]
COc1ccc(-c2cnc3[nH]cc(-c4ccc(OC)c(OC)c4)c3c2)cc1OC	100	92	81	88	96	36	13	Active	51	100	0.8	43	100	10	66	88	82
COc1ccc(-c2c[nH]c3ncc(-c4cc(OC)c(OC)c(OC)c4)cc23)cc1OC	98	93	75	92	100	45	25	Active	48	92	19	40	100	70	75	82	92
COc1ccc(-c2c[nH]c3ncc(-c4ccc(C(=O)N5CCOCC5)c(N)c4)cc23)cc1OC	100	72	56	88	94	17	0.85		17	100	51	76	97	2.2	100	66	44

Results, then the compound that gave them:

residual activity [1] [%]	residual activity [2] [%]	residual activity [3] [%]	residual activity [4] [%]	residual activity [5] [%]	residual activity [6] [%]	residual activity [7] [%]	inhibition [8]	residual activity [9] [%]	residual activity [10] [%]	residual activity [11] [%]	residual activity [12] [%]	residual activity [13] [%]	residual activity [14] [%]	residual activity [15] [%]	residual activity [16] [%]	residual activity [17] [%]	Compound
92	90	43	93	93	16	17	Active	54	93	37	51	100	26	71	78	85	COc1ccc(-c2cnc3[nH]cc(-c4ccc(OC)c(OC)c4)c3c2)cc1N
87	74	36	92	100	68	8.9	Active	47	71	9.8	33	100	46	71	34	31	COc1cc(-c2c[nH]c3ncc(-c4cccc(N)c4)cc23)cc(OC)c1OC
